# How the values were obtained:
# MDA-MB-435 [1] = test: Cytotoxicity against human MDA-MB-435 cell line by MTT assay; type: functional, cell-based
# HEY [2] = test: Cytotoxicity against human HEY cell line by MTT assay; type: functional, cell-based
# Integrin alpha-V/beta-3 = Integrin alpha-V/beta-3 (Homo sapiens, UniProt P05106+P06756); test: Inhibition of [125I]echistatin binding to integrin alphaVbeta3 receptor; type: protein-complex assay
# MCF7 [3] = test: Cytotoxicity against human MCF7 cell line by MTT assay; type: functional, cell-based
# HEY [4] = test: Cytotoxicity against human HEY cell line at 20 uM by MTT assay; type: functional
# MDA-MB-435 [5] = test: Cytotoxicity against human MDA-MB-435 cell line at 20 uM by MTT assay; type: functional
# MCF7 [6] = test: Cytotoxicity against human MCF7 cell line at 20 uM by MTT assay; type: functional
# NIH3T3 = test: Cytotoxicity against mouse NIH3T3 cell line by MTT assay; type: functional, cell-based
# NCI-H1975 = test: Cytotoxicity against human NCI-H1975 cell line by MTT assay; type: functional, cell-based
# Integrin alpha-V/beta-3, sequence (P05106 27-788 limits assumed): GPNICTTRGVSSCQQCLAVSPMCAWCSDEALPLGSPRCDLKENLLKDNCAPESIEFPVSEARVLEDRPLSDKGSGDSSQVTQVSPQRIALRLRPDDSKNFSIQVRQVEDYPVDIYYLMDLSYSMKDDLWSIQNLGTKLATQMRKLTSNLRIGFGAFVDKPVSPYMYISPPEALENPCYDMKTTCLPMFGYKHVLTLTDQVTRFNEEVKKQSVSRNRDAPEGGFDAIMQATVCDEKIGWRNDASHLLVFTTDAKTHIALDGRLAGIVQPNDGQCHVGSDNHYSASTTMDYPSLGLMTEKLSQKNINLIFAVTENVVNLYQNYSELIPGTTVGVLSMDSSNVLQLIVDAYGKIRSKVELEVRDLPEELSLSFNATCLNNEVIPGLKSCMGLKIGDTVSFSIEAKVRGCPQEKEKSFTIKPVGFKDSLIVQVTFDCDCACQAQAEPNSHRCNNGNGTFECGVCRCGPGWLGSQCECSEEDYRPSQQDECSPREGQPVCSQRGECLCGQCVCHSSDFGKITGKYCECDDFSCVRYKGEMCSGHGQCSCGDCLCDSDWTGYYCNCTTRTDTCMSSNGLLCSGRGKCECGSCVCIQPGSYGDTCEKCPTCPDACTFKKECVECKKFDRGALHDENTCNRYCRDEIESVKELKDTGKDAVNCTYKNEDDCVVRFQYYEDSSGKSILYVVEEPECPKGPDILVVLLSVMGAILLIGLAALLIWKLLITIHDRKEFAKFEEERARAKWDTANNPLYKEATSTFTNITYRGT
# Integrin alpha-V/beta-3, sequence (P06756 31-889 limits assumed): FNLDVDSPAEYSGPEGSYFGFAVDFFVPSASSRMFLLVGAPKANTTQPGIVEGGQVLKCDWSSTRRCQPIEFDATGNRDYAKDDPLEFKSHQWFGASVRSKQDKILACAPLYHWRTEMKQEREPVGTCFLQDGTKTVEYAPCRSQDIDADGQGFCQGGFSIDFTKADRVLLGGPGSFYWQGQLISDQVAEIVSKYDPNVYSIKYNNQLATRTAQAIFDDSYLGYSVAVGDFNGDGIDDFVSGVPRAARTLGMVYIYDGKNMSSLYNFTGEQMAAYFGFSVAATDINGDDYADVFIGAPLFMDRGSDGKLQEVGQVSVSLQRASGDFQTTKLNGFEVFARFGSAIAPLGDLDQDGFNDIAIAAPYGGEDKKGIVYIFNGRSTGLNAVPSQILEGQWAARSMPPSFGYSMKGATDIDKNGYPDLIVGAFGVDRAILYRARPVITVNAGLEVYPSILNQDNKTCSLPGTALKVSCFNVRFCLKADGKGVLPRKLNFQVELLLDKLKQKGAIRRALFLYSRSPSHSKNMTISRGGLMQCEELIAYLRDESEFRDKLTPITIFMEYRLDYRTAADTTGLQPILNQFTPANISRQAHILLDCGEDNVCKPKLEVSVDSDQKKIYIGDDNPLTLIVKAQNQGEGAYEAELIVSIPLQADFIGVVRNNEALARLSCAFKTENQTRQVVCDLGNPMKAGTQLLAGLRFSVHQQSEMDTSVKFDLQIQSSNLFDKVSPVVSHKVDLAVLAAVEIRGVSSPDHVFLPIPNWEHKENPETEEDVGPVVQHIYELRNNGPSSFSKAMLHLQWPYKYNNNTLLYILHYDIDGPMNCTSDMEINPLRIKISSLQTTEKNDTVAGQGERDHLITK
# Integrin alpha-V/beta-3, sequence (P06756 891-1048 limits assumed): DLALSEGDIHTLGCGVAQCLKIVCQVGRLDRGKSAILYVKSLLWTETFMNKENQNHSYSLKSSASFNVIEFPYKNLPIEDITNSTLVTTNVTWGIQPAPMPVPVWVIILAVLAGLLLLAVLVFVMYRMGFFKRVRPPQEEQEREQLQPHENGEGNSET
Structure (SMILES),IC50 (MDA-MB-435 [1]) [µM],IC50 (HEY [2]) [µM],IC50 (MCF7 [3]) [µM],inhibition at 20 µM (HEY [4]) [%],further results
CN(C)c1ccc(/C=C2\SC(=Nc3ccc(O)cc3)NC2=O)cc1,2.8,> 20,> 20,–,IC50 (Integrin alpha-V/beta-3): > 1 µM
CC(=O)Nc1nc(O)c2nc(CCN(C)c3ccc(C(=O)O)cc3)cnc2n1,–,–,–,0,–
Nc1nc(O)c2cc(COc3ccc(C(=O)NC(CCC(=O)O)C(=O)O)cc3)ccc2n1 (configuration not stated),–,–,–,6,–
COc1cc(O)c(Cl)cc1/C=C1\S/C(=N/c2cccc(C(=O)O)c2)N(C)C1=O,–,–,–,0,inhibition at 20 µM (MDA-MB-435 [5]): 3%; inhibition at 20 µM (MCF7 [6]): 9%
CC1=NN(c2ccc(C(=O)O)cc2)C(=O)/C1=C/c1ccc(-c2ccc(S(N)(=O)=O)cc2)o1,> 20,> 20,19,6,–
CCOc1cc(/C=C2/S/C(=N\c3ccc(C(=O)O)cc3)N(C)C2=O)ccc1O,0.34,13,> 20,51,inhibition at 20 µM (MDA-MB-435 [5]): 94%; inhibition at 20 µM (MCF7 [6]): 37%; IC50 (Integrin alpha-V/beta-3): 0.24 µM; IC50 (NIH3T3): > 20 µM; IC50 (NCI-H1975): > 20 µM
Nc1nc(O)c2nc3c(nc2n1)C(=O)N(c1ccc(C(=O)NC(CCC(=O)O)C(=O)O)cc1)C3 (configuration not stated),–,–,–,0,–
Cc1nnc(N/N=C/c2ccc(OCC(=O)O)cc2)nc1O,–,–,–,0,–
O=C(O)c1ccc(-c2ccc(/C=N/Nc3nc(Nc4ccccc4)nc(Nc4ccccc4)n3)o2)cc1,18,21,> 20,–,–
CC1=NN(c2ccc(S(N)(=O)=O)cc2)C(=O)/C1=C\c1ccc(-c2ccccc2C(=O)O)o1,–,–,–,5,inhibition at 20 µM (MDA-MB-435 [5]): 24%; inhibition at 20 µM (MCF7 [6]): 20%
COc1cc(/C=C2/NC(=O)N(CC(=O)Nc3ccc(C)cc3)C2=O)ccc1OCc1cccc(C(=O)O)c1,–,–,–,0,inhibition at 20 µM (MDA-MB-435 [5]): 26%; inhibition at 20 µM (MCF7 [6]): 43%
Cc1ccc(NC(=O)CN2C(=O)N/C(=C\c3cccn3-c3cccc(C(=O)O)c3)C2=O)cc1,> 20,> 20,> 20,5,IC50 (NIH3T3): > 20 µM; IC50 (NCI-H1975): > 20 µM
O=C(CSc1nnn(-c2ccc(O)cc2)n1)NCc1cccc(C(=O)O)c1,–,–,–,0,inhibition at 20 µM (MDA-MB-435 [5]): 9%; inhibition at 20 µM (MCF7 [6]): 34%
Nc1ccc(C(=O)Nc2nc3ccc(C(=O)O)cc3s2)cc1,–,–,–,0,–
Nc1nc(=O)c2cc(CSc3ccc(C(=O)NC(CCC(=O)O)C(=O)O)cc3)ccc2[nH]1 (configuration not stated),–,–,–,0,–
COc1cc(/C=N/Nc2nc(Nc3ccc(F)cc3)nc(N3CCCCC3)n2)ccc1OCC(=O)O,–,–,–,0,–
Cc1ccnc(NS(=O)(=O)c2ccc(NC(=O)c3ccc(C(=O)O)cc3C(=O)O)cc2)n1,–,–,–,0,–
CCOc1ccc(/N=C2/S/C(=C\c3ccc(N(C)C)cc3)C(=O)N2CC)cc1,> 20,> 20,> 20,–,IC50 (NIH3T3): > 20 µM; IC50 (NCI-H1975): > 20 µM
COc1cc(Cl)c(/C=C2\S/C(=N/c3cccc(C(=O)O)c3)N(C)C2=O)cc1OC,> 20,> 20,> 20,0,IC50 (NIH3T3): > 20 µM; IC50 (NCI-H1975): > 20 µM
O=C(CCCCn1cnc2c(S)ncnc21)Nc1ccc(C(=O)O)c(O)c1,–,–,–,0,–
CCOc1cc(/C=N/Nc2nc(Nc3ccccc3)nc(N3CCCCC3)n2)ccc1OCC(=O)O,–,–,–,0,–
CN(Cc1cnc2nc(N)nc(N)c2n1)c1ccc(C(=O)NC(CCCCN)C(=O)O)cc1 (configuration not stated),–,–,–,0,–
O=C(O)c1cccc(-c2ccc(/C=N/Nc3nc4nonc4nc3Nc3ccc(F)cc3)o2)c1,8,7,19,90,IC50 (Integrin alpha-V/beta-3): > 1 µM; IC50 (NIH3T3): 13 µM; IC50 (NCI-H1975): > 20 µM
O=C(O)COc1ccc(/C=N/NC(=O)c2ccc(O)cc2)cc1OCC(=O)O,–,–,–,9,–
CCn1cc(C(=O)O)c(=O)c2cc(F)c(N3CCN(S(=O)(=O)c4ccc(NC(C)=O)cc4)CC3)cc21,–,–,–,0,–
CS(=O)(=O)Nc1ccc(C2=NN(C(=O)CCCC(=O)O)C(c3ccco3)C2)cc1 (configuration not stated),> 20,> 20,> 20,–,IC50 (NIH3T3): > 20 µM; IC50 (NCI-H1975): > 20 µM
CC1=C(C#N)c2nc(N)c(C#N)c(C)c2/C1=C/c1ccc(-c2ccc(Cl)c(C(=O)O)c2)o1,–,–,–,14,–
COc1cc(OC)c(/C=C2\S/C(=N/c3ccc(C(=O)O)cc3)N(C)C2=O)cc1Br,–,–,–,4,–
Nc1nc(O)c2nc(CCCNc3ccc(C(=O)NC(CCC(=O)O)C(=O)O)cc3)cnc2n1 (configuration not stated),> 20,> 20,> 20,0,IC50 (NIH3T3): > 20 µM; IC50 (NCI-H1975): > 20 µM

# — ChEMBL document CHEMBL1137431, “Discovery of small molecule integrin alphavbeta3 antagonists as novel anticancer agents” (J Med Chem, 2006)
